Measured values taken from BindingDB's records for doi:10.1111/cbdd.12861 (Quaid-i-Azam University, 2017).

How the values were obtained:
[1] = target: 5'-nucleotidase (Homo sapiens, UniProt P21589); experiment: Ecto-5'-Nucleotidase Inhibition Assay; settings: pH 7.4; 37 °C
Experimental: (§1) The enzymatic assay of both human and rat ecto-5'-nucleotidase were performed with slight modifications in the previously described method. […] Aliquots of 50 μL of each reaction mixture was transferred into CE mini vial and hydrodynamically injected into the capillary by using pressure of 0.5 psi for 5s. The electrosmatic separation of substrate and product peaks occurred by applying voltage of 15 kV. The concentration of product i.e. adenosine was estimated by calculating the area under its absorbance peak at 260 nm.

[2] = target: T1, 5'-nucleotidase (Rattus norvegicus, UniProt P21588); experiment: Ecto-5'-Nucleotidase Inhibition Assay; settings: pH 7.4; 37 °C
T1 sequence (P21588 whole entry): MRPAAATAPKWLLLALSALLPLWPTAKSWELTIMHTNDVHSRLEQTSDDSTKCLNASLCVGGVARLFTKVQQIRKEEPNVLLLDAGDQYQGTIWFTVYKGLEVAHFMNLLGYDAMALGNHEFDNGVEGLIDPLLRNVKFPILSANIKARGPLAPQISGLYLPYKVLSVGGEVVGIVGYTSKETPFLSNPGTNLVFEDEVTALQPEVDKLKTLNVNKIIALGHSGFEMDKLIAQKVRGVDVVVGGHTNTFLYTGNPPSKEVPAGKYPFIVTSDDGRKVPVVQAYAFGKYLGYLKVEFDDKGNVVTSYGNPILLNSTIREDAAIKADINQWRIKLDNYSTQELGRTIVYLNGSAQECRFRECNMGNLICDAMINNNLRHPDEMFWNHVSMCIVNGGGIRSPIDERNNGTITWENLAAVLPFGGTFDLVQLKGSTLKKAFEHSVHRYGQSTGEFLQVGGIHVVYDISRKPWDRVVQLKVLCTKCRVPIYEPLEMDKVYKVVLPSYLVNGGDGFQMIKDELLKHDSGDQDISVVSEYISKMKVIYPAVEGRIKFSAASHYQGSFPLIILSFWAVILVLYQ
Experimental: as §1

[3] = target: Intestinal-type alkaline phosphatase (Bos taurus, UniProt P19111); experiment: Alkaline Phosphatase Inhibition Assay; settings: pH 9.8; 37 °C
Experimental: (§2) The assay conditions were optimized with some changes in formerly reported spectrophotometric method. The composition of assay buffer of pH 9.8 was as: […], 0.05 mM ZnCl2 and 2.5 mM MgCl2. All compounds were tested at the initial concentration of 0.2 mM. A total assay volume of 50 μL contained 10 μL of tested compound, followed by the addition of 20 μL of either b-TNAP (1:800 times diluted enzyme in assay buffer) or 20 μL of c-IAP (1:800 times diluted enzyme in same assay buffer). After incubating the reaction mixture for 3-5 minutes at 37 °C, pre-read was taken by measuring luminescence with the help of microplate reader (BioTek FLx800, Instruments, Inc. USA). After that, 20 μL of substrate (CDP-Star) at the concentration of (110 μM) was added to the reaction mixture. Then the reaction mixture was again incubated for 15-20 min at 37 °C and after read was taken to measure the change in the luminescence. Total activity control (without inhibitor or negative control) was used for comparison of the activity of each test compound. L-phenylalanine (at concentration of 4 mM per well) and Levamisole (at concentration of 2 mM per well) were used as reference standards against calf intestinal alkaline phosphatase (c-IAP) and bovine tissue-nonspecific alkaline phosphatase (b-TNAP) respectively.

[4] = target: T2, Alkaline phosphatase, tissue-nonspecific isozyme (Bos taurus, UniProt P09487); experiment: Alkaline Phosphatase Inhibition Assay; settings: pH 9.8; 37 °C
T2 sequence (P09487 whole entry): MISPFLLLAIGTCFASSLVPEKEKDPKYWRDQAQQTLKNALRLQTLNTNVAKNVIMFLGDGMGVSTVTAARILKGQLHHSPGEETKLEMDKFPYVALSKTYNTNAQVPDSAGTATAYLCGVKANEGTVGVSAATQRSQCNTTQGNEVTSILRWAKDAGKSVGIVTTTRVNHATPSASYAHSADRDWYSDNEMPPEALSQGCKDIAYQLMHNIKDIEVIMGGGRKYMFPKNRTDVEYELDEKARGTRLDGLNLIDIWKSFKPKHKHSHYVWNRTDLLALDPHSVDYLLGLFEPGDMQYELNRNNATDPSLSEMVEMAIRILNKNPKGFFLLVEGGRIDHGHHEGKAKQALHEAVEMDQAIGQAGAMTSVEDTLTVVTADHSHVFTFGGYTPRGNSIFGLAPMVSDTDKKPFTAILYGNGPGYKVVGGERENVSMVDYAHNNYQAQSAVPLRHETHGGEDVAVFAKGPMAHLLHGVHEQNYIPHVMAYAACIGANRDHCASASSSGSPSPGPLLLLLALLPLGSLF
Experimental: as §2

Sequence of Intestinal-type alkaline phosphatase (P19111 whole entry): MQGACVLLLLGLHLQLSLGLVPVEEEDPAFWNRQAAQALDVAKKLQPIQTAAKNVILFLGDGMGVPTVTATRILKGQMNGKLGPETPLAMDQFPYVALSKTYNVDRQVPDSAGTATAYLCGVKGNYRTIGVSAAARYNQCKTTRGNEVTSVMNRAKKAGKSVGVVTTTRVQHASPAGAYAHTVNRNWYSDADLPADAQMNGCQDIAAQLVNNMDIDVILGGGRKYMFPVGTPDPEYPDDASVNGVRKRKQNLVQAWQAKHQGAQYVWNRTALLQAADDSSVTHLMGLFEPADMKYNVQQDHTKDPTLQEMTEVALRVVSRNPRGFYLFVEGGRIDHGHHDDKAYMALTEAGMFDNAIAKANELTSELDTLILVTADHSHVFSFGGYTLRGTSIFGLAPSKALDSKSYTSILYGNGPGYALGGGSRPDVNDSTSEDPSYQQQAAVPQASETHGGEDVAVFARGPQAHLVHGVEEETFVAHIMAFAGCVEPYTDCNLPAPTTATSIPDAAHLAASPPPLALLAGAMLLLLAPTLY
Sequence of 5'-nucleotidase (Homo sapiens, UniProt P21589) (P21589 whole entry): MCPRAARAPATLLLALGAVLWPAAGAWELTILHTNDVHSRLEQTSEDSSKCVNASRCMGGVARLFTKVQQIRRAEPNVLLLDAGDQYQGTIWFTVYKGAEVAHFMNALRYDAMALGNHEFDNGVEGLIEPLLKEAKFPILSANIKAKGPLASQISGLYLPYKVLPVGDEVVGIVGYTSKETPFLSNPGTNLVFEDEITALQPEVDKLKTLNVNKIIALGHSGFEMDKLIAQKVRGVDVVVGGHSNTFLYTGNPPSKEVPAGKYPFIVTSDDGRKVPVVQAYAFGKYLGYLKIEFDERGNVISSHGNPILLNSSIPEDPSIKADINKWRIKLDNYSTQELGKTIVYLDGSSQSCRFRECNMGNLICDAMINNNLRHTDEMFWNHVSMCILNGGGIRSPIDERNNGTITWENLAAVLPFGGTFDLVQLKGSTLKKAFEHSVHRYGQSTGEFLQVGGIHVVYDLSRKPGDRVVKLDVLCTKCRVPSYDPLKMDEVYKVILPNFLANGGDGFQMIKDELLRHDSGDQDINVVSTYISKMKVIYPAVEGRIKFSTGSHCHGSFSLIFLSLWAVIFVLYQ

SMILES	IC50 [1] [nM]	IC50 [2] [nM]	IC50 [3] [nM]	IC50 [4] [nM]
O=C(N/N=C/c1cccc([N+](=O)[O-])c1)c1ccncc1 [(E)-N'-(3'-Nitrobenzylidene)isonicotinohydrazide (3f)]	1900	210	7340	1820
O=C(N/N=C/c1ccc(Br)cc1)c1ccncc1 [(E)-N'-(4'-Bromobenzylidene)isonicotinohydrazide (3b)]	230	7130	9720	4130
O=C(N/N=C/c1ccc(F)cc1)c1ccncc1 [(E)-N'-(4'-Fluorobenzylidene)isonicotinohydrazide (3c)]	6760	440	17500	2260
O=C(N/N=C/c1ccc(Cl)cc1)c1ccncc1 [(E)-N'-(4'-Chlorobenzylidene)isonicotinohydrazide (3a)]	1670	1080	670	
O=C(N/N=C/c1cccnc1)c1ccncc1 [(E)-N'-(Pyridin-3'-ylmethylene)isonicotinohydrazide (3i)]	210	3010	1460	2430
COc1ccc(/C=N/NC(=O)c2ccncc2)cc1 [(E)-N'-(4'-Methoxybenzylidene)isonicotinohydrazide (3d)]	13800	310	1740	560
O=C(N/N=C/c1ccncc1)c1ccncc1 [(E)-N'-(Pyridin-4'-ylmethylene)isonicotinohydrazide (3h)]	2120	2890	2460	
O=C(N/N=C/c1ccccc1O)c1ccncc1 [(E)-N'-(2'-hydroxybenzylidene)isonicotinohydrazide (3e)]	1340	450	1440	
COc1cc(/C=N/NC(=O)c2ccncc2)ccc1O [(E)-N'-(4'-Hydroxy-3-methoxybenzylidene)isonicotinohydrazide (3g)]			1920	350
C/C(=N\NC(=O)c1ccncc1)N1N=C(c2ccc(F)cc2)CC1c1ccccc1 (stereo not given) [(E)-N'-(1-(3-(4-fluorophenyl)-5-phenyl-4,5-dihydro-1H-pyrazol-1yl)ethylidene)isonicotino hydrazide (3j)]	190	360	3980	1060
